Data reported in patent US9056844B2, “4-substituted-3-benzyloxy-bicyclo[3.1.0]hexane compounds as mGluR 2/3 antagonists” (Eli Lilly and Company, priority 2010, dated 2015).

Columns and labels:
[1] = system: male NIH-Swiss mice; assay: Forced-swim test in mice (mFST); format: in vivo, mouse
Description: Forced-Swim Test in Mice (mFST)
mFST is an established in vivo assay for antidepressant activity (Li et al. J Pharmacol Exp Ther. 319(1):254-9, 2006.). […] The mFST was used to evaluate potential antidepressant-like activity of novel mGlu2/3 antagonists essentially as described in previously published methods (see for example, Li et al. J Pharmacol Exp Ther. 319(1):254-9, 2006.). Briefly, male NIH-Swiss mice (Harlan Sprague-Dawley, Indianapolis, Ind.) weighing between 25-30 g are used. Group housed animals are removed from the vivarium to the testing area in their own cages and allowed to adapt to the new environment for at least 1 hour before testing. Compounds where R^1 and R^2 are both hydrogen are dissolved in water with minimal NaOH added for dissolution and are administered i.p. Compounds where R^1 and/or R^2 are other than hydrogen are prepared on the day of use in 2.0-2.5% N-methyl-pyrrolidinone and then suspended in 1% HEC, 0.25% Tween 80, and 0.05% Dow antifoam, and administered orally. Mice are placed in a cylinder (diameter: 10 cm; height: 25 cm) filled with 6 cm of water (22-25° C.) for 6 min. The duration of immobility during the last 4 min. of the 6 min. period of the test was scored. A mouse is recorded as immobile when floating motionless or making only those movements necessary to keep its head above water.

[2] = system: mice; assay: mFST with SSRI (fluoxetine combination); format: in vivo, mouse
Protocol: mFST is an established in vivo assay for antidepressant activity (Li et al. J Pharmacol Exp Ther. 319(1):254-9, 2006.). […] J Pharmacol Exp Ther. 319(1):254-9, 2006.). Briefly, male NIH-Swiss mice (Harlan Sprague-Dawley, Indianapolis, Ind.) weighing between 25-30 g are used. Group housed animals are removed from the vivarium to the testing area in their own cages and allowed to adapt to the new environment for at least 1 hour before testing. Compounds where R^1 and R^2 are both hydrogen are dissolved in water with minimal NaOH added for dissolution and are administered i.p. […] Mice are placed in a cylinder (diameter: 10 cm; height: 25 cm) filled with 6 cm of water (22-25° C.) for 6 min. The duration of immobility during the last 4 min. of the 6 min. period of the test was scored. A mouse is recorded as immobile when floating motionless or making only those movements necessary to keep its head above water. The compounds of the invention may also be tested in combination with other compounds useful for the treatment of depressive disorders, as for example SSRI's, for their ability to enhance the antidepressant-like effects over that of either compound alone.

[3] = system: mGlu2+/+ mice; assay: mFST in mGlu2+/+ littermate mice; format: in vivo, mouse; settings: 30 mg/kg, po, 120 min prior
[4] = Brain and plasma levels of active di-acid in the fluoxetine combination study; format: in vivo, mouse; settings: combination with fluoxetine versus alone
Description: The compounds of the invention may also be tested in combination with other compounds useful for the treatment of depressive disorders, as for example SSRI's, for their ability to enhance the antidepressant-like effects over that of either compound alone.

[5] = system: male Wistar rats; assay: Wakefulness and behavioral monitoring in rats (EEG/EMG/LMA); format: in vivo, rat; settings: for Locomotor Activity Intensity, Mean (difference from vehicle controls): averaged over the first 7 hr post-treatment; for Cumulative Time Awake 8-19 hours, Mean (difference from vehicle controls): rebound hypersomnolence measure
Protocol: Wakefulness and Behavioral Monitoring in Rats:
Representative compounds of the present invention are tested in rats for their ability to increase the amount of time in a state of wakefulness without undesired effects such as inhibition of REM sleep, waking motor impairment (disproportionate hyper- or hypolocomotion), and/or rebound hypersomnia Test animals are continuously monitored by electro-encephalograms (EEG), electromyograms (EMG), and motion to measure cumulative time awake, rebound hypersomnia, and locomotor activity intensity during wakefulness. Methods for such studies are known in the art (see for example methods described in Edgar D M, Seidel W F. Modafinil induces wakefulness without intensifying motor activity or subsequent rebound hypersomnolence in the rat. J Pharmacology & Experimental Therapeutics 1997; 283: 757-769; van Gelder R N, Edgar D M, Dement W C. Real-time automated sleep scoring: validation of a microcomputer-based system for mice. Sleep 1991, 14: 48-55; and Gross B A, Walsh C M, Turakhia A A, Booth V, Mashour G A, Poe G R. Open-source logic-based automated sleep scoring software using electrophysiological recordings in rats. J Neurosci Methods. 2009; 184(1):10-8.) Studies are conducted as follows:
Adult, male Wistar rats (approximately 270-300 g at time of surgery) are surgically fitted for chronic recording of EEG, EMG, body temperature, and motion as follows: Rats are surgically prepared with a cranial implant consisting of four stainless steel screws for EEG recording (two frontal [3.9 mm anterior from bregma, and ±2.0 mm mediolaterally] and two occipital [6.4 mm posterior from bregma, ±5.5 mm mediolaterally]), and with two Teflon-coated stainless steel wires for EMG recording (positioned under the nuchal trapezoid muscles). All leads are soldered to a miniature connector (Microtech, Boothwyn, Pa.) prior to surgery. The implant assembly is affixed to the skull by the combination of the stainless steel EEG recording screws, cyanoacrylate applied between the implant connector and skull, and dental acrylic. Body temperature and locomotor activity is monitored via a miniature transmitter (Minimitter PDT4000G, Philips Respironics, Bend, Oreg.) surgically placed into the abdomen. At least 3 weeks are allowed for recovery.
Each rat is housed individually within a microisolator cage modified with an inserted polycarbonate filter-top riser to allow more vertical headroom. A flexible cable that minimally restricts movement is connected at one end to a commutator affixed to the cage top and at the other end to the animal's cranial implant. Each cage is located within separate, ventilated compartments of a stainless steel sleep-wake recording chamber. Food and water are available ad libitum and the ambient temperature is maintained at about 23±1° C. A 24-hr light-dark cycle (LD 12:12) using fluorescent light is maintained throughout the study. Relative humidity averages approximately 50%. Animals are undisturbed for at least 30 hrs before and after each treatment.
Compounds where R^1 and R^2 are both hydrogen are dissolved in water with minimal NaOH added for dissolution and are administered i.p in a volume of 1.0 mL per kg body weight. Compounds where R^1 and/or R^2 are other than hydrogen are administer p.o. in a volume of 2 mL per kg body weight in one of two alternative vehicles: i) 2.5% N-methyl-2-pyrrolidinone in hydroxyethylcellulose; or ii) 10% acacia with 0.05% Dow Corning® Antifoam in water. The vehicle or one of the compound dose levels is administered pseudo-randomly such that no rat receives the same treatment twice, and no rat receives more than two of the 8 treatments in any one study. Each rat is removed from its cage for about a minute to be weighed and treated. At least 6 days “washout” period precede and follow each treatment.
Sleep and wakefulness discrimination may be automated (e.g., Van Gelder et al. 1991; Edgar et al. 1997, Winrow et al., 2010; Gross et al., 2009). […]

Q: Which ED60 ([1]; Mus musculus, po, immobility in last 4 min of 6 min) does the source give for `CC(C)OC(=O)OCOC(=O)[C@H]1[C@@H]2[C@H](O)[C@@H](OCc3ccc(Cl)c(Cl)c3)[C@@](N)(C(=O)OCOC(=O)OC(C)C)[C@H]12.Cl` [Example 10, Bis({[(1-methylethoxy)carbonyl]oxy}methyl) (1S,2R,3S,4S,5R,6R)-2-amino-3-[(3,4-dichlorobenzyl)oxy]-4-hydroxybicyclo[3.1.0]hexane-2,6-dicarboxylate hydrochloride] here?
A: Its ED60 is 22.1 mg/kg.

Q: What about the “Maximal Decrease (1 − compound/control) * 100%” value ([1]; p.o., immobility time) of the same compound?
A: The value was 50.5%.

Q: What about the “antidepressant-like effect in combination with fluoxetine” value ([2]; Example 10 17 mg/kg p.o. with fluoxetine 10 mg/kg i.p.) of the same compound?
A: Its value is “significantly increase the antidepressant-like effect over that of either compound alone”.

Q: And the “Maximal Decrease (1 − compound/control) * 100%” value ([2]; Example 10 17 mg/kg p.o., fluoxetine 10 mg/kg i.p., alone or combined)?
A: The value was 24.5%.

Q: And the “Immobilization Time” value ([2]; Example 10 17 mg/kg p.o., fluoxetine 10 mg/kg i.p., alone or combined, vehicle 174)?
A: Its value is 105 s.

Q: And the immobility time [3]?
A: The immobility time was “decrease immobility time”.

Q: And the “brain and plasma levels of the active di-acid moiety” value [4]?
A: Its value is “no increase in exposure levels”.

Q: And the “Cumulative Time Awake first 7 hours, Mean (difference from vehicle controls)” value ([5]; 10 mg/kg PO)?
A: The value was 20.4 min.

Q: What about the “Locomotor Activity Intensity, Mean (difference from vehicle controls)” value ([5]; 10 mg/kg PO) of the same compound?
A: The value was 2.7 counts of LMA per minute of EEG-defined wakefulness.

Q: What about the “Cumulative Time Awake 8-19 hours, Mean (difference from vehicle controls)” value ([5]; 10 mg/kg PO) of the same compound?
A: Its value is 15.2 min.

Q: And the “Cumulative Time Awake first 7 hours, Mean (difference from vehicle controls)” value ([5]; 30 mg/kg PO)?
A: The value was 48.8 min.

Q: What about the “Locomotor Activity Intensity, Mean (difference from vehicle controls)” value ([5]; 30 mg/kg PO) of the same compound?
A: Its value is 0.5 counts of LMA per minute of EEG-defined wakefulness.

Q: What about the “Cumulative Time Awake 8-19 hours, Mean (difference from vehicle controls)” value ([5]; 30 mg/kg PO) of the same compound?
A: The value was 25.6 min.

Q: What about the “Cumulative Time Awake first 7 hours, Mean (difference from vehicle controls)” value ([5]; 60 mg/kg PO) of the same compound?
A: The value was 64.7 min.

Q: What about the “Locomotor Activity Intensity, Mean (difference from vehicle controls)” value ([5]; 60 mg/kg PO) of the same compound?
A: Its value is 4.2 counts of LMA per minute of EEG-defined wakefulness.

Q: And the “Cumulative Time Awake 8-19 hours, Mean (difference from vehicle controls)” value ([5]; 60 mg/kg PO)?
A: Its value is 34.7 min.
